Laboratory results as given in US20190239509A1, “METHOD OF CONTROLLING PLANTS” (SYNGENTA PARTICIPATIONS AG, priority 2016, published 2019).

What was measured:
Assay type in all cases: in vivo
Bidens pilosa (BIDPI) [1] = experiment: B2 drilled field trial Brazil, post-emergence, BIDPI; settings: 100=total damage, 0=no damage; for BIDPI 7DAA Observed: 7 days after application; for BIDPI 30 DAA Observed: 30 days after application
Experimental: (§1) Seeds of a variety of test species were used in drilled field trials to look at the control of important weed species present in corn crops as well as the effect on soybean (a volunteer crop in corn). Trials were carried out in Brazil in the summer season.
(§2) Plot size was 10-12 m^2, and two replicates were carried out per treatment. Plants were treated post-emergence at the 4 leaf stage. Fungicides and insecticides were used as necessary for plant health. The test was evaluated at 7 and 30 days after application (Amaranthus viridis (AMAVI), Bidens pilosa (BIDPI), Euphorbia heterophylla (EPPHL)) and 9 and 37 days after application (Brachiaria plantaginea (BRAPL) and soybean (Glycine max GLXMA) with 100=total damage to plant and 0=no damage to plant.
(§3) Expected results were calculated using the Colby Formula.

[2] = system: Digitaria horizontalis (DIGHO); experiment: B3 drilled field trial Brazil, post-emergence, DIGHO; settings: 28 days after application
Experimental: (§4) Seeds of a variety of test species were used in drilled field trials to look at the control of important weed species present in corn crops as well as the effect on soybean (a volunteer crop in corn). Trials were carried out in Brazil in the summer season and the second season.
(§5) Plot size was 10-15 m^2, and two replicates were carried out per treatment. Plants were treated post-emergence between the 2 and 4 leaf stage. Species tested were Amaranthus retroflexus (AMARE), Ipomoea grandifolia (IAQGR), Digitaria horizontalis (DIGHO), Bidens pilosa (BIDPI), Eleusine indica (ELEIN), Brachiaria decumbens (BRADC), Centrus echinatus (CCHEC), Euphorbia heterophylla (EPPHL), Brachiaria plantaginea (BRAPL) and Glycine max (GLXMA; soybean). Fungicides and insecticides were used as necessary for plant health. The test was evaluated at 28 days after application with 100=total damage to plant and 0=no damage to plant.
as §3

[3] = system: Euphorbia heterophylla (EPPHL); experiment: B2 drilled field trial Brazil, post-emergence, EPPHL; settings: 100=total damage, 0=no damage; for EPPHL 7DAA Observed: 7 days after application; for EPPHL 30 DAA Observed: 30 days after application
Experimental: as §1, §2, §3

[4] = system: Amaranthus viridis (AMAVI); experiment: B2 drilled field trial Brazil, post-emergence, AMAVI; settings: 100=total damage, 0=no damage; for AMAVI 7DAA Observed: 7 days after application; for AMAVI 30 DAA Observed: 30 days after application
Experimental: as §1, §2, §3

[5] = system: soybean (Glycine max GLXMA); experiment: B2 drilled field trial Brazil, post-emergence, soybean; settings: 100=total damage, 0=no damage; for GLXMA 9DAA Observed: 9 days after application; for GLXMA 37 DAA Observed: 37 days after application
Experimental: as §1, §2, §3

[6] = system: Ipomoea grandifolia (IAQGR); experiment: B3 drilled field trial Brazil, post-emergence, IAQGR; settings: 28 days after application
Experimental: as §4, §5, §3

[7] = system: Brachiaria plantaginea (BRAPL); experiment: B3 drilled field trial Brazil, post-emergence, BRAPL; settings: Summer season, 28 days after application
Experimental: as §4, §5, §3

Bidens pilosa (BIDPI) [8] = experiment: B3 drilled field trial Brazil, post-emergence, BIDPI; settings: 28 days after application
Experimental: as §4, §5, §3

[9] = system: Amaranthus retroflexus (AMARE); experiment: B3 drilled field trial Brazil, post-emergence, AMARE; settings: 28 days after application, 100=total damage, 0=no damage
Experimental: as §4, §5, §3

[10] = system: Euphorbia heterophylla (EPPHL); experiment: B3 drilled field trial Brazil, post-emergence, EPPHL; settings: Summer season, 28 days after application
Experimental: as §4, §5, §3

[11] = system: Brachiaria decumbens (BRADC); experiment: B3 drilled field trial Brazil, post-emergence, BRADC; settings: 28 days after application
Experimental: as §4, §5, §3

[12] = system: Centrus echinatus (CCHEC); experiment: B3 drilled field trial Brazil, post-emergence, CCHEC; settings: 28 days after application
Experimental: as §4, §5, §3

[13] = system: Glycine max (GLXMA; soybean); experiment: B3 drilled field trial Brazil, post-emergence, soybean; settings: 28 days after application
Experimental: as §4, §5, §3

[14] = system: Brachiaria plantaginea (BRAPL); experiment: B2 drilled field trial Brazil, post-emergence, BRAPL; settings: 100=total damage, 0=no damage; for BRAPL 9DAA Observed: 9 days after application; for BRAPL 37 DAA Observed: 37 days after application
Experimental: as §1, §2, §3

Eleusine indica (ELEIN) = experiment: B3 drilled field trial Brazil, post-emergence, ELEIN; settings: 28 days after application
Experimental: as §4, §5, §3

CS(=O)(=O)c1ccc(C(=O)C2C(=O)CCCC2=O)c([N+](=O)[O-])c1 [Mesotrione, reference compound]
BIDPI 7DAA Observed (Bidens pilosa (BIDPI) [1]; 75 g ai/ha): 28
BIDPI 30 DAA Observed (Bidens pilosa (BIDPI) [1]; 75 g ai/ha): 28
BIDPI 7DAA Observed (Bidens pilosa (BIDPI) [1]; 125 g ai/ha): 40
BIDPI 30 DAA Observed (Bidens pilosa (BIDPI) [1]; 125 g ai/ha): 40
Observed damage (100=total damage to plant, 0=no damage) ([2]; Second season, 75 g ai/ha): 40
Observed damage (100=total damage to plant, 0=no damage) ([2]; Second season, 125 g ai/ha): 70
Observed damage (100=total damage to plant, 0=no damage) ([2]; Summer season, 75 g ai/ha): 50
Observed damage (100=total damage to plant, 0=no damage) ([2]; Summer season, 125 g ai/ha): 72
EPPHL 7DAA Observed ([3]; 75 g ai/ha): 30
EPPHL 30 DAA Observed ([3]; 75 g ai/ha): 20
EPPHL 7DAA Observed ([3]; 125 g ai/ha): 40
EPPHL 30 DAA Observed ([3]; 125 g ai/ha): 35
AMAVI 7DAA Observed ([4]; 75 g ai/ha): 25
AMAVI 30 DAA Observed ([4]; 75 g ai/ha): 30
AMAVI 7DAA Observed ([4]; 125 g ai/ha): 65
AMAVI 30 DAA Observed ([4]; 125 g ai/ha): 50
GLXMA 9DAA Observed ([5]; 75 g ai/ha): 45
GLXMA 37 DAA Observed ([5]; 75 g ai/ha): 65
GLXMA 9DAA Observed ([5]; 125 g ai/ha): 55
GLXMA 37 DAA Observed ([5]; 125 g ai/ha): 88
Observed damage (100=total damage to plant, 0=no damage) ([6]; Second season, 75 g ai/ha): 79
Observed damage (100=total damage to plant, 0=no damage) ([6]; Second season, 125 g ai/ha): 87
Observed damage (100=total damage to plant, 0=no damage) ([6]; Summer season, 75 g ai/ha): 63
Observed damage (100=total damage to plant, 0=no damage) ([6]; Summer season, 125 g ai/ha): 96
Observed damage (100=total damage to plant, 0=no damage) ([7]; 75 g ai/ha): 15
Observed damage (100=total damage to plant, 0=no damage) ([7]; 125 g ai/ha): 28
Observed damage (100=total damage to plant, 0=no damage) (Bidens pilosa (BIDPI) [8]; Second season, 75 g ai/ha): 68
Observed damage (100=total damage to plant, 0=no damage) (Bidens pilosa (BIDPI) [8]; Second season, 125 g ai/ha): 70
Observed damage (100=total damage to plant, 0=no damage) (Bidens pilosa (BIDPI) [8]; Summer season, 75 g ai/ha): 53
Observed damage (100=total damage to plant, 0=no damage) (Bidens pilosa (BIDPI) [8]; Summer season, 125 g ai/ha): 74
AMARE Second season Observed ([9]; 75 g ai/ha): 40
AMARE Summer season Observed ([9]; 75 g ai/ha): 73
AMARE Second season Observed ([9]; 125 g ai/ha): 54
AMARE Summer season Observed ([9]; 125 g ai/ha): 85
Observed damage (100=total damage to plant, 0=no damage) ([10]; 75 g ai/ha): 40
Observed damage (100=total damage to plant, 0=no damage) ([10]; 125 g ai/ha): 58
Observed damage (100=total damage to plant, 0=no damage) ([11]; Second season, 75 g ai/ha): 10
Observed damage (100=total damage to plant, 0=no damage) ([11]; Second season, 125 g ai/ha): 13
Observed damage (100=total damage to plant, 0=no damage) ([11]; Summer season, 75 g ai/ha): 48
Observed damage (100=total damage to plant, 0=no damage) ([11]; Summer season, 125 g ai/ha): 50
Observed damage (100=total damage to plant, 0=no damage) ([12]; Second season, 75 g ai/ha): 0
Observed damage (100=total damage to plant, 0=no damage) ([12]; Second season, 125 g ai/ha): 0
Observed damage (100=total damage to plant, 0=no damage) ([12]; Summer season, 75 g ai/ha): 0
Observed damage (100=total damage to plant, 0=no damage) ([12]; Summer season, 125 g ai/ha): 0
Observed damage (100=total damage to plant, 0=no damage) ([13]; Second season, 75 g ai/ha): 83
Observed damage (100=total damage to plant, 0=no damage) ([13]; Second season, 125 g ai/ha): 89
Observed damage (100=total damage to plant, 0=no damage) ([13]; Summer season, 75 g ai/ha): 69
Observed damage (100=total damage to plant, 0=no damage) ([13]; Summer season, 125 g ai/ha): 92
BRAPL 9DAA Observed ([14]; 75 g ai/ha): 53
BRAPL 37 DAA Observed ([14]; 75 g ai/ha): 7
BRAPL 9DAA Observed ([14]; 125 g ai/ha): 65
BRAPL 37 DAA Observed ([14]; 125 g ai/ha): 0
Observed damage (100=total damage to plant, 0=no damage) (Eleusine indica (ELEIN); Second season, 75 g ai/ha): 20
Observed damage (100=total damage to plant, 0=no damage) (Eleusine indica (ELEIN); Second season, 125 g ai/ha): 50
Observed damage (100=total damage to plant, 0=no damage) (Eleusine indica (ELEIN); Summer season, 75 g ai/ha): 53
Observed damage (100=total damage to plant, 0=no damage) (Eleusine indica (ELEIN); Summer season, 125 g ai/ha): 58
